Test results as given in PubChem BioAssay AID248 (DTP/NCI, 2004).
Where “and” joins values, the source holds several entries; their conditions need not be identical. Equal values may be shown once. Inconclusive results and toxic doses are left out.

System: L1210 leukemia ip in BDF1 mice, survival T/C
Experiment: NCI In Vivo Anticancer Drug Screen. Data for tumor model L1210 Leukemia (intraperitoneal) in B6D2F1 (BDF1) mice
Conditions: higher = longer survival
Method in brief: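 Each compound was tested against a transplantable tumor grown in mice. The endpoint was survival, with treated animals benchmarked against vehicle controls as a simple ratio.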

[1] = endpoint: mean survival time, dose: 100.0 mg/kg/injection, schedule: Q01DX001 (ip), vehicle: saline
[2] = endpoint: mean survival time, dose: 100.0 mg/kg/injection, schedule: Q04DX003 (ip), vehicle: saline
[3] = endpoint: mean survival time, dose: 200.0 mg/kg/injection, schedule: Q01DX001 (ip), vehicle: saline
[4] = endpoint: mean survival time, dose: 400.0 mg/kg/injection, schedule: Q01DX001 (ip), vehicle: saline

For `COc1cc([C@@H]2c3cc4c(cc3[C@@H](OC3OC5COC(C)OC5C(O)C3O)[C@H]3COC(=O)[C@H]23)OCO4)cc(OC)c1O` (stereo partly specified), the T/C (endpoint: mean survival time, dose: 1.8 mg/kg/injection, schedule: Q03HX016 (ip), vehicle: saline) was 292 % of control, the T/C (endpoint: mean survival time, dose: 1.8 mg/kg/injection, schedule: Q03HX024 (ip), vehicle: saline) was 315 % of control and the T/C (endpoint: mean survival time, dose: 2.0 mg/kg/injection, schedule: Q01DX009 (ip), vehicle: Klucel (hydroxypropylcellulose) (HPC)) was 161 % of control and 172 % of control. For the same molecule, the T/C (endpoint: mean survival time, dose: 2.7 mg/kg/injection, schedule: Q03HX016 (ip), vehicle: saline) was 510 % of control, the T/C (endpoint: mean survival time, dose: 2.7 mg/kg/injection, schedule: Q03HX024 (ip), vehicle: saline) was 600 % of control and the T/C (endpoint: mean survival time, dose: 4.0 mg/kg/injection, schedule: Q01DX001 (sc), vehicle: Klucel (hydroxypropylcellulose) (HPC)) was 97 % of control. The T/C (endpoint: mean survival time, dose: 4.0 mg/kg/injection, schedule: Q01DX001 (sc), vehicle: clinical formulation) was 102 % of control, the T/C (endpoint: mean survival time, dose: 4.0 mg/kg/injection, schedule: Q01DX009 (ip), vehicle: Klucel (hydroxypropylcellulose) (HPC)) was 104 % of control and 196 % of control and 266 % of control and the T/C (endpoint: mean survival time, dose: 4.0 mg/kg/injection, schedule: Q01DX009 (sc), vehicle: clinical formulation) was 183 % of control. The T/C (endpoint: mean survival time, dose: 4.0 mg/kg/injection, schedule: Q03HX016 (ip), vehicle: saline) was 409 % of control, the T/C (endpoint: mean survival time, dose: 4.0 mg/kg/injection, schedule: Q03HX016 (oral), vehicle: Klucel (hydroxypropylcellulose) (HPC)) was 105 % of control and the T/C (endpoint: mean survival time, dose: 4.0 mg/kg/injection, schedule: Q03HX024 (ip), vehicle: saline) was 568 % of control. For the same molecule, the T/C (endpoint: mean survival time, dose: 4.5 mg/kg/injection, schedule: Q03HX024 (ip), vehicle: saline) was 409 % of control, the T/C (endpoint: mean survival time, dose: 6.0 mg/kg/injection, schedule: Q03HX016 (ip), vehicle: saline) was 154 % of control and the T/C (endpoint: mean survival time, dose: 8.0 mg/kg/injection, schedule: Q01DX001 (sc), vehicle: Klucel (hydroxypropylcellulose) (HPC)) was 103 % of control. The T/C (endpoint: mean survival time, dose: 8.0 mg/kg/injection, schedule: Q01DX001 (sc), vehicle: clinical formulation) was 106 % of control, the T/C (endpoint: mean survival time, dose: 8.0 mg/kg/injection, schedule: Q01DX009 (sc), vehicle: clinical formulation) was 180 % of control and the T/C (endpoint: mean survival time, dose: 8.0 mg/kg/injection, schedule: Q03HX016 (oral), vehicle: Klucel (hydroxypropylcellulose) (HPC)) was 105 % of control. The T/C (endpoint: mean survival time, dose: 8.0 mg/kg/injection, schedule: Q04DX003 (ip), vehicle: Klucel (hydroxypropylcellulose) (HPC)) was 225 % of control, the T/C (endpoint: mean survival time, dose: 12.0 mg/kg/injection, schedule: Q03DX003 (ip), vehicle: saline) was 319 % of control and the T/C (endpoint: mean survival time, dose: 12.0 mg/kg/injection, schedule: Q04DX003 (ip), vehicle: saline) was 213 % of control. For the same molecule, the T/C (endpoint: mean survival time, dose: 16.0 mg/kg/injection, schedule: Q01DX001 (sc), vehicle: Klucel (hydroxypropylcellulose) (HPC)) was 106 % of control, the T/C (endpoint: mean survival time, dose: 16.0 mg/kg/injection, schedule: Q01DX001 (sc), vehicle: clinical formulation) was 117 % of control and the T/C (endpoint: mean survival time, dose: 16.0 mg/kg/injection, schedule: Q01DX009 (sc), vehicle: Klucel (hydroxypropylcellulose) (HPC)) was 208 % of control. For the same molecule, the T/C (endpoint: mean survival time, dose: 16.0 mg/kg/injection, schedule: Q01DX009 (sc), vehicle: clinical formulation) was 187 % of control, the T/C (endpoint: mean survival time, dose: 16.0 mg/kg/injection, schedule: Q03HX016 (oral), vehicle: Klucel (hydroxypropylcellulose) (HPC)) was 105 % of control and the T/C (endpoint: mean survival time, dose: 16.0 mg/kg/injection, schedule: Q08DX002 (ip), vehicle: Klucel (hydroxypropylcellulose) (HPC)) was 157 % of control. For the same molecule, the T/C (endpoint: mean survival time, dose: 18.0 mg/kg/injection, schedule: Q03DX003 (ip), vehicle: saline) was 395 % of control, the T/C (endpoint: mean survival time, dose: 18.0 mg/kg/injection, schedule: Q04DX003 (ip), vehicle: saline) was 372 % of control and the T/C (endpoint: mean survival time, dose: 27.0 mg/kg/injection, schedule: Q03DX003 (ip), vehicle: saline) was 552 % of control. The T/C (endpoint: mean survival time, dose: 27.0 mg/kg/injection, schedule: Q04DX003 (ip), vehicle: saline) was 506 % of control, the T/C (endpoint: mean survival time, dose: 32.0 mg/kg/injection, schedule: Q01DX001 (sc), vehicle: Klucel (hydroxypropylcellulose) (HPC)) was 115 % of control and the T/C (endpoint: mean survival time, dose: 32.0 mg/kg/injection, schedule: Q01DX009 (oral), vehicle: Klucel (hydroxypropylcellulose) (HPC)) was 109 % of control. The T/C (endpoint: mean survival time, dose: 32.0 mg/kg/injection, schedule: Q03HX016 (oral), vehicle: Klucel (hydroxypropylcellulose) (HPC)) was 119 % of control, the T/C (endpoint: mean survival time, dose: 32.0 mg/kg/injection, schedule: Q04DX003 (oral), vehicle: Klucel (hydroxypropylcellulose) (HPC)) was 109 % of control and the T/C (endpoint: mean survival time, dose: 32.0 mg/kg/injection, schedule: Q08DX002 (ip), vehicle: Klucel (hydroxypropylcellulose) (HPC)) was 338 % of control. The T/C (endpoint: mean survival time, dose: 40.0 mg/kg/injection, schedule: Q03DX003 (ip), vehicle: saline) was 562 % of control, the T/C (endpoint: mean survival time, dose: 40.0 mg/kg/injection, schedule: Q04DX003 (ip), vehicle: saline) was 584 % of control and the T/C (endpoint: mean survival time, dose: 50.0 mg/kg/injection, schedule: Q01DX001 (ip), vehicle: Klucel (hydroxypropylcellulose) (HPC)) was 276 % of control. For the same molecule, the T/C (endpoint: mean survival time, dose: 50.0 mg/kg/injection, schedule: Q01DX001 (ip), vehicle: saline) was 116 % of control, the T/C (endpoint: mean survival time, dose: 60.0 mg/kg/injection, schedule: Q03DX003 (ip), vehicle: saline) was 86 % of control and the T/C (endpoint: mean survival time, dose: 64.0 mg/kg/injection, schedule: Q01DX001 (oral), vehicle: Klucel (hydroxypropylcellulose) (HPC)) was 103 % of control. For the same molecule, the T/C (endpoint: mean survival time, dose: 64.0 mg/kg/injection, schedule: Q01DX001 (sc), vehicle: clinical formulation) was 120 % of control, the T/C (endpoint: mean survival time, dose: 64.0 mg/kg/injection, schedule: Q03HX016 (oral), vehicle: Klucel (hydroxypropylcellulose) (HPC)) was 108 % of control and the T/C (endpoint: mean survival time, dose: 64.0 mg/kg/injection, schedule: Q04DX003 (oral), vehicle: Klucel (hydroxypropylcellulose) (HPC)) was 123 % of control. The T/C (endpoint: mean survival time, dose: 64.0 mg/kg/injection, schedule: Q08DX002 (ip), vehicle: Klucel (hydroxypropylcellulose) (HPC)) was 417 % of control, the T/C (endpoint: mean survival time, dose: 100.0 mg/kg/injection, schedule: Q01DX001 (ip), vehicle: Klucel (hydroxypropylcellulose) (HPC)) was 448 % of control and the T/C [1] was 176 % of control. The T/C (endpoint: mean survival time, dose: 128.0 mg/kg/injection, schedule: Q01DX001 (oral), vehicle: Klucel (hydroxypropylcellulose) (HPC)) was 104 % of control and 106 % of control, the T/C (endpoint: mean survival time, dose: 128.0 mg/kg/injection, schedule: Q01DX001 (oral), vehicle: clinical formulation) was 109 % of control and the T/C (endpoint: mean survival time, dose: 128.0 mg/kg/injection, schedule: Q03HX016 (oral), vehicle: Klucel (hydroxypropylcellulose) (HPC)) was 118 % of control. The T/C (endpoint: mean survival time, dose: 128.0 mg/kg/injection, schedule: Q08DX002 (ip), vehicle: Klucel (hydroxypropylcellulose) (HPC)) was 119 % of control, the T/C (endpoint: mean survival time, dose: 256.0 mg/kg/injection, schedule: Q01DX001 (oral), vehicle: Klucel (hydroxypropylcellulose) (HPC)) was 104 % of control and 110 % of control and the T/C (endpoint: mean survival time, dose: 256.0 mg/kg/injection, schedule: Q01DX001 (oral), vehicle: clinical formulation) was 106 % of control. The T/C (endpoint: mean survival time, dose: 256.0 mg/kg/injection, schedule: Q01DX001 (sc), vehicle: Klucel (hydroxypropylcellulose) (HPC)) was 166 % of control, the T/C (endpoint: mean survival time, dose: 256.0 mg/kg/injection, schedule: Q01DX001 (sc), vehicle: clinical formulation) was 188 % of control and the T/C (endpoint: mean survival time, dose: 256.0 mg/kg/injection, schedule: Q01DX009 (oral), vehicle: Klucel (hydroxypropylcellulose) (HPC)) was 103 % of control. For the same molecule, the T/C (endpoint: mean survival time, dose: 512.0 mg/kg/injection, schedule: Q01DX001 (oral), vehicle: Klucel (hydroxypropylcellulose) (HPC)) was 106 % of control and 118 % of control, the T/C (endpoint: mean survival time, dose: 512.0 mg/kg/injection, schedule: Q01DX001 (oral), vehicle: clinical formulation) was 165 % of control and the T/C (endpoint: mean survival time, dose: 512.0 mg/kg/injection, schedule: Q01DX009 (oral), vehicle: Klucel (hydroxypropylcellulose) (HPC)) was 91 % of control. For the same molecule, the T/C (endpoint: mean survival time, dose: 1024.0 mg/kg/injection, schedule: Q01DX001 (oral), vehicle: Klucel (hydroxypropylcellulose) (HPC)) was 111 % of control, the T/C (endpoint: median survival time, dose: 2.0 mg/kg/injection, schedule: Q01DX009 (ip), vehicle: saline) was 172 % of control and the T/C (endpoint: median survival time, dose: 2.0 mg/kg/injection, schedule: Q01DX009 (sc), vehicle: Klucel (hydroxypropylcellulose) (HPC)) was 121 % of control. The T/C (endpoint: median survival time, dose: 4.0 mg/kg/injection, schedule: Q01DX009 (ip), vehicle: saline) was 188 % of control, the T/C (endpoint: median survival time, dose: 8.0 mg/kg/injection, schedule: Q01DX009 (ip), vehicle: saline) was 611 % of control and the T/C (endpoint: median survival time, dose: 8.0 mg/kg/injection, schedule: Q01DX009 (sc), vehicle: Klucel (hydroxypropylcellulose) (HPC)) was 168 % of control. For the same molecule, the T/C (endpoint: median survival time, dose: 16.0 mg/kg/injection, schedule: Q01DX009 (sc), vehicle: Klucel (hydroxypropylcellulose) (HPC)) was 110 % of control and the T/C (endpoint: median survival time, dose: 32.0 mg/kg/injection, schedule: Q01DX009 (sc), vehicle: Klucel (hydroxypropylcellulose) (HPC)) was 89 % of control.

In the case of `CCOC(=O)Cn1c(=O)ssc1=O`, the T/C (endpoint: mean survival time, dose: 25.0 mg/kg/injection, schedule: Q04DX003 (ip), vehicle: saline) is reported as 100 % of control, the T/C (endpoint: mean survival time, dose: 50.0 mg/kg/injection, schedule: Q04DX003 (ip), vehicle: saline) is reported as 100 % of control and the T/C [2] is reported as 100 % of control.

With `O=C(Nc1c(Br)cc2c(c1Br)Cc1cc([N+](=O)[O-])ccc1-2)C(Cl)Cl` the T/C (endpoint: mean survival time, dose: 100.0 mg/kg/injection, schedule: Q01DX001 (ip), vehicle: carboxymethylcellulose (CMC)) was 98 % of control, the T/C (endpoint: mean survival time, dose: 200.0 mg/kg/injection, schedule: Q01DX001 (ip), vehicle: carboxymethylcellulose (CMC)) was 107 % of control and the T/C (endpoint: mean survival time, dose: 400.0 mg/kg/injection, schedule: Q01DX001 (ip), vehicle: carboxymethylcellulose (CMC)) was 109 % of control.

For `CCCCCCCCCCCC(=O)Nc1cc(C(C)C)ccc1C`, the T/C [1] was 87 % of control, the T/C [2] was 88 % of control and the T/C [3] was 86 % of control. For the same molecule, the T/C [4] was 91 % of control.

For `COc1c2occc2c(OC)c2c(=O)cc(/C=C/c3ccncc3)oc12`, the T/C [1] was 97 % of control, the T/C [3] was 94 % of control and the T/C [4] was 101 % of control.
